Reference: ChEMBL document CHEMBL4699511, “Cedrol, a Sesquiterpene Alcohol, Enhances the Anticancer Efficacy of Temozolomide in Attenuating Drug Resistance via Regulation of the DNA Damage Response and MGMT Expression” (J Nat Prod, 2020)
Active and inactive are the calls of the source. The rule behind the calls is not given here.

Key:
[1] = Effect on JNK expression in human DBTRG-05MG cells at 206 uM after 48 hrs by Western blot analysis (reference value: 1); format: functional
DBTRG-05MG [2] = assay: Induction of apoptosis in human DBTRG-05MG cells assessed as increase in chromatin condensation at 206 uM after 48 hrs by TUNEL assay; format: functional, cell-based
RG2 [3] = assay: Induction of cell cycle arrest in rat RG2 cells assessed as CyclinB1 expression at 206 uM after 48 hrs by Western blot analysis (reference value: 1); format: functional
[4] = Effect on ERK expression in rat RG2 cells at 206 uM after 48 hrs by Western blot analysis (reference value: 1); format: functional
RG2 [5] = assay: Induction of apoptosis in rat RG2 cells assessed as Bcl2 expression at 206 uM after 48 hrs by Western blot analysis (reference value: 1); format: functional
DBTRG-05MG [6] = assay: Induction of apoptosis in human DBTRG-05MG cells assessed as increase in apoptotic body formation at 206 uM after 48 hrs by TUNEL assay; format: functional, cell-based
DBTRG-05MG [7] = assay: Induction of DNA damage in human DBTRG-05MG cells assessed as Chk2 phosphorylation at Thr68 residues at 206 uM after 48 hrs by Western blot analysis (reference value: 1); format: functional
[8] = Synergistic cytotoxicity against rat CTX TNA2 cells assessed as combination index at 89.9 uM after 48 hrs in presence of 515.1 uM TMZ by MTT assay; format: cell-based; settings: ctx tna2, 48 h
DBTRG-05MG [9] = assay: Synergistic cytotoxicity against human DBTRG-05MG cells assessed as combination index at 134.9 uM after 48 hrs in presence of 103 uM TMZ by MTT assay; format: functional
DBTRG-05MG [10] = assay: Induction of cell cycle arrest in human DBTRG-05MG cells assessed as accumulation at G0/G1 phase at 112.4 uM after 6 hrs by propidium iodide staining based flow cytometric analysis (reference value: 47.16 +/- 1.55%); format: functional
DBTRG-05MG [11] = assay: Induction of cell cycle arrest in human DBTRG-05MG cells assessed as p53 expression at 112.4 uM after 48 hrs by Western blot analysis (reference value: 1); format: functional
DBTRG-05MG [12] = assay: Induction of cell cycle arrest in human DBTRG-05MG cells assessed as accumulation at S phase at 112.4 uM after 48 hrs by propidium iodide staining based flow cytometric analysis (reference value: 22.76 +/- 1.56%); format: functional
RG2 [13] = assay: Synergistic cytotoxicity against rat RG2 cells assessed as combination index at 134.9 uM after 48 hrs in presence of 206 uM TMZ by MTT assay; format: functional
[14] = Synergistic cytotoxicity against rat CTX TNA2 cells assessed as combination index at 112.4 uM after 48 hrs in presence of 412.1 uM TMZ by MTT assay; format: cell-based; settings: ctx tna2, 48 h
RG2 [15] = assay: Induction of apoptosis in rat RG2 cells assessed as increase in DNA fragmentation at 112.4 uM after 48 hrs in presence of TMZ by TUNEL assay; format: functional, cell-based
RG2 [16] = assay: Induction of apoptosis in rat RG2 cells assessed as increase in apoptotic body formation at 112.4 uM after 48 hrs in presence of TMZ by TUNEL assay; format: functional, cell-based
DBTRG-05MG [17] = assay: Potentiation of TMZ-induced antitumor activity against human DBTRG-05MG cells xenografted in BALB/c nude mouse assessed as increase DNA damage at 75 mg/kg, sc co-treated with TMZ for 18 days by p.H2A.X staining based fluorescent immunocytochemistry method; format: functional, organism-based; settings: time 18.0 day
[18] = Synergistic cytotoxicity against rat CTX TNA2 cells assessed as synergistic effect index at 89.9 uM after 48 hrs in presence of 103 uM TMZ by MTT assay; format: cell-based; settings: ctx tna2, 48 h
DBTRG-05MG [19] = assay: Induction of apoptosis in human DBTRG-05MG cells assessed as cleaved PARP expression at 112.4 uM after 48 hrs in presence of TMZ by Western blot analysis (reference value: 1); format: functional
[20] = Inhibition of TMZ-induced drug resistance in human DBTRG-05MG cells assessed as MDR1 expression at 112.4 uM after 48 hrs by Western blot analysis (reference value: 1.5); format: functional
DBTRG-05MG [21] = assay: Synergistic cytotoxicity against human DBTRG-05MG cells assessed as combination index at 112.4 uM after 48 hrs in presence of 412.1 uM TMZ by MTT assay; format: functional
RG2 [22] = assay: Inhibition of ERK phosphorylation at Tyr204 residues in rat RG2 cells at 112.4uM after 48 hrs in presence of TMZ by Western blot analysis (reference value: 1); format: cell-based
RG2 [23] = assay: Synergistic cytotoxicity against rat RG2 cells assessed as synergistic effect index at 112.4 uM after 48 hrs in presence of 309 uM TMZ by MTT assay; format: functional
DBTRG-05MG [24] = assay: Synergistic cytotoxicity against human DBTRG-05MG cells assessed as synergistic effect index at 134.9 uM after 48 hrs in presence of 309 uM TMZ by MTT assay; format: functional
[25] = Effect of CD133 expression in rat RG2 cells at 112.4 uM after 48 hrs by Western blot analysis; format: functional
DBTRG-05MG [26] = assay: Induction of apoptosis in human DBTRG-05MG cells assessed as cleaved caspace-9 expression at 112.4 uM after 48 hrs by Western blot analysis (reference value: 1); format: functional
RG2 [27] = assay: Induction of cell cycle arrest in rat RG2 cells assessed as accumulation at G2/M phase at 112.4 uM after 24 hrs by propidium iodide staining based flow cytometric analysis (reference value: 20.04 +/- 0.55%); format: functional
RG2 [28] = assay: Induction of apoptosis in rat RG2 cells assessed as cleaved PARP expression at 112.4 uM after 48 hrs in presence of TMZ by Western blot analysis (reference value: 1); format: functional
DBTRG-05MG [29] = assay: Synergistic cytotoxicity against human DBTRG-05MG cells assessed as synergistic effect index at 112.4 uM after 48 hrs in presence of 103 uM TMZ by MTT assay; format: functional
[30] = Toxicity in BALB/c mouse xenografted with DBTRG-05MG cells assessed as reduction in body weight at 75 mg/kg, sc for every 2 days for 20 days; format: organism-based; settings: in vivo, 480 h, time 20 day
DBTRG-05MG [31] = assay: Induction of cell cycle arrest in human DBTRG-05MG cells assessed as p53 expression at 112.4 uM after 48 hrs in presence of TMZ by Western blot analysis (reference value: 1); format: functional
DBTRG-05MG [32] = assay: Induction of cell cycle arrest in human DBTRG-05MG cells assessed as accumulation at G0/G1 phase at 112.4 uM after 48 hrs by propidium iodide staining based flow cytometric analysis (reference value: 47.16 +/- 1.55%); format: functional
DBTRG-05MG [33] = assay: Induction of cell cycle arrest in human DBTRG-05MG cells assessed as accumulation at S phase at 112.4 uM after 6 hrs by propidium iodide staining based flow cytometric analysis (reference value: 22.76 +/- 1.56%); format: functional
RG2 [34] = assay: Induction of cell cycle arrest in rat RG2 cells assessed as accumulation at G0/G1 phase at 112.4 uM after 12 hrs by propidium iodide staining based flow cytometric analysis (reference value: 57.81 +/- 1.9%); format: functional

Cn1nnc2c(C(N)=O)ncn2c1=O [TEMOZOLOMIDE]
fold change (FC) [1]: 0.7
Activity (DBTRG-05MG [2]): Active
fold change (FC) (RG2 [3]): 1.8
fold change (FC) [4]: 1.1
fold change (FC) (RG2 [5]): 1.3
Activity (DBTRG-05MG [6]): Active
fold change (FC) (DBTRG-05MG [7]): 2

C[C@@H]1CC[C@H]2C(C)(C)[C@H]3C[C@@]12CC[C@@]3(C)O [CEDROL]
CI [8]: 0.89
CI (DBTRG-05MG [9]): 0.64
Activity (DBTRG-05MG [10]): 53.26%
fold change (FC) (DBTRG-05MG [11]): 0.9
Activity (DBTRG-05MG [12]): 18.04%
CI (RG2 [13]): 0.84
CI [14]: 1.1
Activity (RG2 [15]): Active
Activity (RG2 [16]): Active
Activity (DBTRG-05MG [17]): Active
Activity_index [18]: 0.24
fold change (FC) (DBTRG-05MG [19]): 1.9
fold change (FC) [20]: 0.7
CI (DBTRG-05MG [21]): 0.62
fold change (FC) (RG2 [22]): 0.3
Activity_index (RG2 [23]): 0.85
Activity_index (DBTRG-05MG [24]): 0.89
fold change (FC) [25]: 1
fold change (FC) (DBTRG-05MG [26]): 1.1
Activity (RG2 [27]): 18.42%
fold change (FC) (RG2 [28]): 1.6
Activity_index (DBTRG-05MG [29]): 0.84
Activity [30]: Non-Toxic
fold change (FC) (DBTRG-05MG [31]): 2.2
Activity (DBTRG-05MG [32]): 53.13%
Activity (DBTRG-05MG [33]): 16.38%
Activity (RG2 [34]): 64.98%
